Data published in patent US20120128646A1, “METHODS AND COMPOSITIONS FOR THE TREATMENT OF AUTOIMMUNE DISEASE” (priority 2009, published 2012).
“Also recorded” adds a separate entry of the source. Where no end group is shown, it is not given here.

How the values were obtained:
[1] = test system: BDC-10.1 T cell hybridoma; assay: CD69 upregulation on T cell hybridoma co-cultured with insect cells infected with linked peptide I-A^g7 viruses; type: cell-based, mouse; conditions: hybridomas 3 × 10^5/mL, 3 hrs co-culture with infected insect cells 1 × 10^5/mL
Description: (§1) FIG. 13F: The p3 glycine of pS3 was mutated to other amino acids. The effect of the mutations on early activation of the three BDC hybridomas was assessed by CD69 induction. The results are shown as the percent of cells expressing CD69 relative to those activated with the unmutated pS3 peptide. […] The sequences of the pS3 and ChgA peptide are also shown, highlighting the amino acids at the p3 position.
(§2) A mutational analysis was performed of 3 L mimotope at positions 2 and 3 followed by their respective ability to stimulate BDC-2.5, BDC-10.1 and BDC-5.10.3 hybridomas with 3 L mimotope substituted peptides. See, Table 3.

[2] = test system: BDC-5.10.3 T cell hybridoma; assay: as above; type: cell-based, mouse; conditions: hybridomas 3 × 10^5/mL, 3 hrs co-culture with infected insect cells 1 × 10^5/mL
Description: as §1, §2

BDC-2.5 T cell hybridoma = assay: as above; type: cell-based, mouse; conditions: hybridomas 3 × 10^5/mL, 3 hrs co-culture with infected insect cells 1 × 10^5/mL
Description: as §1, §2

T cell clone BDC-2.5 = assay: IFNγ production by T cell clone in antigen assay (ELISA); type: cell-based, NOD mouse; conditions: peptide or preparation as antigen
From the text: The T cell clones are maintained in culture by periodic re-stimulation with irradiated NOD splenocytes and islet cells or β-membrane. To assay for antigen, resting responder T cells (i.e., for example, the cells at the end of the two-week restimulation period) are co-cultured for 24 hr with elicited peritoneal macrophages (PEC) as APC and either a test sample or control antigen. Control antigen will be in the form of islet cells or the whole-cell membrane fraction (i.e., for example, a β-membrane fraction). As described above, unlysed β-membrane is stored in aliquots at −80° C. for this purpose. Negative controls include responder cells alone and responders plus APC.
At the end of the culture period, supernatants are collected from the cultures and IFNγ production is measured by ELISA. Wells positive for IFNγ are indicative of T cells responding to antigen; the amount of cytokine produced is calculated from a standard curve and is directly proportional to the amount of antigen present.
Antigenicity of islet cells, cellular and biochemical fractions, peptides, or insect cells expressing IA^g7-peptide constructs, was assessed through responses of T cell clones or hybridomas made by fusing T cell clones to the TCR^− version of T cell lymphoma, BW5147. White et al., “Two better cell lines for making hybridomas expressing specific T cell receptors” J Immunol 143:1822-1825 (1989). T cell clone cultures typically contained 2×10^4 responder T cells, 2.5×10^4 NOD peritoneal exudate cells (PEC) as APC, and antigen (SEC/IEX fractions, peptides, islet cells); all assays were performed with β-Mem as a positive control. IFNγ was measured by ELISA of culture supernatants. For cultures with T cell hybridomas, antigen/MHC activation was assessed by IL-2 production measured by a bioassay using the HT-2 T cell line. Walker et al., “Antigenspecific. I region-restricted interactions in vitro between tumor cell lines and T cell hybridomas” J Immunol 128:2164-2169 (1982). Synthetic peptides were either produced in the Molecular Resource Center at National Jewish Health or obtained from CHI Scientific, Maynard, Mass.

soluble IA^g7 = assay: Peptide binding to IA^g7: competition with biotinylated HEL peptide; set-up: species or system NOD mouse; conditions: competition with biotinylated pHEL 11 μM, pH 5.6, overnight
From the text: FIG. 15B: A series of ChgA peptides tested for their ability to compete with a biotinylated HEL peptide for binding to soluble IA^g7. pS3-positive control peptide. IE^k moth cytochrome c-negative control peptide. N=2. Y axis: Percent of IA^g7-bound biotinylated HEL peptide as compared to IE^k. X axis: Log concentration of inhibitor peptide.
In order to confirm the unique binding register of the WE14 peptide, a series of peptides comprising N-terminal extensions and/or C-terminal deletions of WE14 were evaluated for their ability to stimulate the BDC-2.5 T cell clone (FIG. 6a) or to bind to IA^g7. See, FIG. 15A. […] See, FIG. 15B. Further, a pS3 mimotope was used as the positive control peptide and an irrelevant peptide from moth cytochrome c, pMCC, was the negative control peptide. The data were analyzed to determine the stimulatory or binding capacity of the peptides relative to WE14. See, FIG. 15C.
Soluble IA^g7 with covalently attached pHEL was treated with thrombin to cleave the linker attaching the peptide to the IA^g7 β chain. Kozono et al., “Production of soluble MHC class II proteins with covalently bound single peptides” Nature 369:151-154 (1994). Samples (0.5 μg) were incubated with a soluble biotinylated version of pHEL, Biotin-GGGMKRHGLDNYRGYSL (SEQ ID NO: 56) (11 μM), either alone or in the presence of various concentrations of potential competitors peptides, in 15 μL of pH 5.6 buffer overnight at room temperature. The sample was diluted to 100 μL of PBS in a well of a 96-well ELISA plate coated with an anti-IA^g7 monoclonal antibody, OX-6 (BD Pharmaceuticals). The captured IA^g7 was washed several times with PBS and the bound bio-pHEL detected with alkaline phosphatase coupled Extravadin (Sigma) and […].

Row | Substance | Stimulation BDC-10.1 (upregulation of CD69) [1] | Stimulation BDC-5.1.3 (upregulation of CD69) [2] | Stimulation BDC-2.5 (upregulation of CD69) (BDC-2.5 T cell hybridoma) | Stimulation of T cell clone BDC-2.5 (IFNγ response), result in words (T cell clone BDC-2.5) | IA^g7 binding, result in words (soluble IA^g7)
1 | SRLYLWVRME | + (A positive response (+) indicates >40% of the hybridoma population stained above a background staining of 1% for unstimulated or of the same T cell hybridoma) | + (A positive response (+) indicates >40% of the hybridoma population stained above a background staining of 1% for unstimulated or of the same T cell hybridoma) |  |  | 
2 | SRLGLWVRME | + (A positive response (+) indicates >40% of the hybridoma population stained above a background staining of 1% for unstimulated or of the same T cell hybridoma) | + (A positive response (+) indicates >40% of the hybridoma population stained above a background staining of 1% for unstimulated or of the same T cell hybridoma) | + (A positive response (+) indicates >40% of the hybridoma population stained above a background staining of 1% for unstimulated or of the same T cell hybridoma) |  | 
3 | SRLMLWVRME | + (A positive response (+) indicates >40% of the hybridoma population stained above a background staining of 1% for unstimulated or of the same T cell hybridoma) | + (A positive response (+) indicates >40% of the hybridoma population stained above a background staining of 1% for unstimulated or of the same T cell hybridoma) |  |  | 
4 | WSRMD [WD5, shortest C-terminal truncation of WE14, motif only] |  |  |  | decreasing stimulatory activity; also recorded: lacked any activity at all | 
5 | SRLALWVRME | + (A positive response (+) indicates >40% of the hybridoma population stained above a background staining of 1% for unstimulated or of the same T cell hybridoma) | + (A positive response (+) indicates >40% of the hybridoma population stained above a background staining of 1% for unstimulated or of the same T cell hybridoma) | + (A positive response (+) indicates >40% of the hybridoma population stained above a background staining of 1% for unstimulated or of the same T cell hybridoma) |  | 
6 | SRFGLWVRME | + (A positive response (+) indicates >40% of the hybridoma population stained above a background staining of 1% for unstimulated or of the same T cell hybridoma) |  | + (A positive response (+) indicates >40% of the hybridoma population stained above a background staining of 1% for unstimulated or of the same T cell hybridoma) |  | 
7 | SRLHLWVRME | + (A positive response (+) indicates >40% of the hybridoma population stained above a background staining of 1% for unstimulated or of the same T cell hybridoma) | + (A positive response (+) indicates >40% of the hybridoma population stained above a background staining of 1% for unstimulated or of the same T cell hybridoma) |  |  | 
8 | SRLRLWVRME | + (A positive response (+) indicates >40% of the hybridoma population stained above a background staining of 1% for unstimulated or of the same T cell hybridoma) | + (A positive response (+) indicates >40% of the hybridoma population stained above a background staining of 1% for unstimulated or of the same T cell hybridoma) | + (A positive response (+) indicates >40% of the hybridoma population stained above a background staining of 1% for unstimulated or of the same T cell hybridoma) |  | 
9 | SRLCLWVRME |  | + (A positive response (+) indicates >40% of the hybridoma population stained above a background staining of 1% for unstimulated or of the same T cell hybridoma) | + (A positive response (+) indicates >40% of the hybridoma population stained above a background staining of 1% for unstimulated or of the same T cell hybridoma) |  | 
10 | SRLVLWVRME | + (A positive response (+) indicates >40% of the hybridoma population stained above a background staining of 1% for unstimulated or of the same T cell hybridoma) | + (A positive response (+) indicates >40% of the hybridoma population stained above a background staining of 1% for unstimulated or of the same T cell hybridoma) |  |  | 
11 | WL11: WE14 truncated by 3 C-terminal amino acids (WSRMDQLAKEL) |  |  |  | decreasing stimulatory activity | indistinguishable from the negative control peptide
12 | SRLTLWVRME | + (A positive response (+) indicates >40% of the hybridoma population stained above a background staining of 1% for unstimulated or of the same T cell hybridoma) | + (A positive response (+) indicates >40% of the hybridoma population stained above a background staining of 1% for unstimulated or of the same T cell hybridoma) | + (A positive response (+) indicates >40% of the hybridoma population stained above a background staining of 1% for unstimulated or of the same T cell hybridoma) |  | 
13 | SRLSLWVRME | + (A positive response (+) indicates >40% of the hybridoma population stained above a background staining of 1% for unstimulated or of the same T cell hybridoma) | + (A positive response (+) indicates >40% of the hybridoma population stained above a background staining of 1% for unstimulated or of the same T cell hybridoma) | + (A positive response (+) indicates >40% of the hybridoma population stained above a background staining of 1% for unstimulated or of the same T cell hybridoma) |  | 
14 | EDKRWSRMDQLAKELTAE [EE18, WE14 extended by 4 amino acids (EDKR)] |  |  |  | virtually eliminated | no effect
15 | Enz: WE14 after transglutaminase modification (WSRMDQLAKELTAE; also: transglutaminase modification, site not given here) |  |  |  | highly antigenic | 
16 | SRLPLWVRME | + (A positive response (+) indicates >40% of the hybridoma population stained above a background staining of 1% for unstimulated or of the same T cell hybridoma) | + (A positive response (+) indicates >40% of the hybridoma population stained above a background staining of 1% for unstimulated or of the same T cell hybridoma) | + (A positive response (+) indicates >40% of the hybridoma population stained above a background staining of 1% for unstimulated or of the same T cell hybridoma) |  | 
17 | QWEDKRWSRMDQA |  |  |  | unable to stimulate | 
18 | WA8: sequential C-terminal truncation of WE14 (WSRMDQLA) |  |  |  | decreasing stimulatory activity | 
